{
  "source": "patent US20240002952A1",
  "about": "“METHOD FOR IN VITRO DIAGNOSIS OF MUCOSITIS IN CANCER PATIENTS UNDERGOING ANTITUMOR THERAPY” (ISTITUTI FISIOTERAPICI OSPITALIERI, priority 2020, published 2024)",
  "key": {"[1]": {"test_system": "Primary epidermal keratinocytes (HEKa)"}, "[2]": {"test_system": "Primary gingival keratinocytes"}},
  "data": [
    {"compound": "O=c1[nH]cc(F)c(=O)[nH]1", "note": "[5-FLUOROURACILE, 5-fluorouracile]", "values": [
      {"measurement": "CC50 Value Primary epidermal keratinocytes (HEKa)", "setting": "[1]", "result": "Not calculable"},
      {"measurement": "CC50 Value Primary gingival keratinocytes", "setting": "[2]", "result": "Not calculable"}
    ]},
    {"compound": "O=C1[O][Pt]2([NH][C@@H]3CCCC[C@H]3[NH]2)[O]C1=O", "note": "[OXALIPLATIN, oxaliplatin]", "values": [
      {"measurement": "CC50", "setting": "[1]", "result": 32.3, "unit": "µM"},
      {"measurement": "CC50", "setting": "[2]", "result": 46, "unit": "µM"}
    ]},
    {"compound": "CCCCCOC(=O)Nc1nc(=O)n([C@@H]2O[C@H](C)[C@@H](O)[C@H]2O)cc1F", "note": "[CAPECITABIN, capecitabin]", "values": [
      {"measurement": "CC50 Value Primary epidermal keratinocytes (HEKa)", "setting": "[1]", "result": "Not calculable"},
      {"measurement": "CC50", "setting": "[2]", "result": 103, "unit": "µM"}
    ]},
    {"compound": "Nc1ncn([C@@H]2O[C@H](CO)[C@@H](O)[C@H]2O)c(=O)n1", "note": "[AZACYTIDINE, azacytidine]", "values": [
      {"measurement": "CC50", "setting": "[1]", "result": 51.2, "unit": "µM"},
      {"measurement": "CC50", "setting": "[2]", "result": 1.8, "unit": "µM"}
    ]}
  ]
}
